Measurements: article PMC7584476, “Safety and efficacy of BAY1436032 in IDH1-mutant AML: phase I study results” (Leukemia, 2020)

Tested on: subjects with mIDH1 advanced AML
Assay: Phase I study: safety and tolerability (TEAE, DLT, MTD, ECG)
Type: in vivo
Experimental: This study was an open-label, nonrandomized, multicenter phase I trial. Subjects were screened at 13 hospital sites in 2 countries (USA and Germany). The study was to consist of dose-escalation followed by dose-expansion. The MTD identified in dose-escalation was to be used in the dose-expansion. If MTD was not reached in dose-escalation, a dose for the expansion would be selected based on available PK, pharmacodynamic, safety, and efficacy data. BAY1436032 was administered twice-daily (BID) in continuous 28-day cycles. In dose-escalation, up to 9 evaluable subjects could be enrolled per cohort, with a minimum of 3 dose-limiting toxicity (DLT)-free evaluable subjects required prior to escalating to the next highest dose. Bayesian dose-DLT modeling was performed to help guide dosing decisions.
DLTs were differentially defined for nonhematopoietic versus hematopoietic toxicities. Nonhematopoietic toxicities of ≥grade 3 occurring during the first cycle of treatment were to be considered DLTs with the following exceptions: (1) Alopecia and nausea controlled by medical management; (2) Tumor lysis syndrome if successfully managed clinically and resolved within 7 days without any end-organ damage; (3) Differentiation syndrome (DS) if successfully managed clinically and resolved within 7 days without any end-organ damage; (4) Asymptomatic ≥grade 3 electrolyte abnormalities not considered clinically significant by the investigator. […] For certain toxicities such as laboratory assessments without a clear clinical correlate, a discussion between the investigator and the sponsor determined whether the adverse event (AE) should be assessed as a DLT.
DLTs identified during the first cycle of treatment were used to guide dose-escalation decisions and to determine the MTD, and if safety issues appeared in subsequent cycles they were also to be considered. Hydroxyurea was permitted during the first cycle if white blood cell (WBC) exceeded 20 × 10^9/L and was also permitted for treatment of DS.
Safety and tolerability were evaluated by analysis of adverse events, physical examinations, vital signs, ECOG performance status, and various laboratory assessments. For safety monitoring, subjects were scheduled for clinic visits every week for the initial three cycles of treatment, after which time visits could be reduced to every-other-week with investigator and sponsor agreement. Cardiac function was assessed with triplicate 12-lead electrocardiograms (ECG) at screening, C1-D1, C1-D2, C1-D15, D1 of every subsequent cycle, and at treatment end. […] AEs are presented by the Medical Dictionary for Regulatory Activities (MedDRA) v21.1.

C[C@H]1C[C@@H](n2c(Nc3ccc(OC(F)(F)F)cc3)nc3cc(CCC(=O)O)ccc32)CC(C)(C)C1 [BAY1436032]
TEAE Decreased appetite Grade 1 (600 mg BID, n=4): 0 | TEAE Decreased appetite Grade 2 (600 mg BID, n=4): 0 | TEAE Decreased appetite Grade 3 (600 mg BID, n=4): 0 | TEAE Diarrhea Grade 1 (600 mg BID, n=4): 0 | TEAE Diarrhea Grade 2 (600 mg BID, n=4): 0 | TEAE Dry skin Grade 1 (600 mg BID, n=4): 1 | TEAE Dyspnoea Grade 1 (600 mg BID, n=4): 0 | TEAE Dyspnoea Grade 2 (600 mg BID, n=4): 0 | TEAE Dyspnoea Grade 3 (600 mg BID, n=4): 0 | TEAE Epistaxis Grade 1 (600 mg BID, n=4): 1 | TEAE Epistaxis Grade 2 (600 mg BID, n=4): 0 | TEAE Epistaxis Grade 3 (600 mg BID, n=4): 1 | TEAE Fall Grade 1 (600 mg BID, n=4): 1 | TEAE Fatigue Grade 1 (600 mg BID, n=4): 1 | TEAE Fatigue Grade 2 (600 mg BID, n=4): 0 | TEAE Fatigue Grade 3 (600 mg BID, n=4): 0 | TEAE Febrile neutropenia Grade 3 (600 mg BID, n=4): 1 | TEAE General physical health deterioration Grade 3 (600 mg BID, n=4): 0 | TEAE General physical health deterioration Grade 5 (600 mg BID, n=4): 0 | TEAE Gingivitis Grade 1 (600 mg BID, n=4): 1 | TEAE Haematuria Grade 1 (600 mg BID, n=4): 0 | TEAE Haematuria Grade 2 (600 mg BID, n=4): 1 | TEAE Haematuria Grade 3 (600 mg BID, n=4): 0 | TEAE Headache Grade 1 (600 mg BID, n=4): 0 | TEAE Headache Grade 2 (600 mg BID, n=4): 0 | TEAE Headache Grade 3 (600 mg BID, n=4): 0 | TEAE Hyperkalaemia Grade 1 (600 mg BID, n=4): 1 | TEAE Hyperkalaemia Grade 4 (600 mg BID, n=4): 1 | TEAE Hypertension Grade 2 (600 mg BID, n=4): 0 | TEAE Hypertension Grade 3 (600 mg BID, n=4): 0 | TEAE Hyperuricaemia Grade 1 (600 mg BID, n=4): 1 | TEAE Hyperuricaemia Grade 3 (600 mg BID, n=4): 1 | TEAE Hypokalaemia Grade 1 (600 mg BID, n=4): 0 | TEAE Hypokalaemia Grade 2 (600 mg BID, n=4): 0 | TEAE Hypokalaemia Grade 3 (600 mg BID, n=4): 0 | TEAE Hyponatraemia Grade 1 (600 mg BID, n=4): 0 | TEAE Hyponatraemia Grade 3 (600 mg BID, n=4): 0 | TEAE Hypophosphataemia Grade 1 (600 mg BID, n=4): 0 | TEAE Hypophosphataemia Grade 2 (600 mg BID, n=4): 0 | TEAE Leukocytosis Grade 2 (600 mg BID, n=4): 0 | TEAE Leukocytosis Grade 3 (600 mg BID, n=4): 0 | TEAE Lung infection Grade 3 (600 mg BID, n=4): 1 | TEAE Lung infection Grade 5 (600 mg BID, n=4): 0 | TEAE Nausea Grade 1 (600 mg BID, n=4): 1 | TEAE Nausea Grade 2 (600 mg BID, n=4): 0 | TEAE Nausea Grade 3 (600 mg BID, n=4): 0 | TEAE Oedema peripheral Grade 1 (600 mg BID, n=4): 1 | TEAE Oedema peripheral Grade 3 (600 mg BID, n=4): 0 | TEAE Pain in extremity Grade 1 (600 mg BID, n=4): 0 | TEAE Pain in extremity Grade 2 (600 mg BID, n=4): 0 | TEAE Pneumonia Grade 1 (600 mg BID, n=4): 0 | TEAE Pneumonia Grade 2 (600 mg BID, n=4): 0 | TEAE Pneumonia Grade 3 (600 mg BID, n=4): 0 | TEAE Pneumonia fungal Grade 2 (600 mg BID, n=4): 0 | TEAE Pneumonia fungal Grade 3 (600 mg BID, n=4): 0 | TEAE Pneumonia fungal Grade 4 (600 mg BID, n=4): 0 | TEAE Productive cough Grade 1 (600 mg BID, n=4): 1 | TEAE Productive cough Grade 2 (600 mg BID, n=4): 0 | TEAE Pyrexia Grade 1 (600 mg BID, n=4): 1 | TEAE Pyrexia Grade 2 (600 mg BID, n=4): 1 | TEAE Pyrexia Grade 3 (600 mg BID, n=4): 0 | TEAE Rash Grade 1 (600 mg BID, n=4): 0 | TEAE Rash Grade 2 (600 mg BID, n=4): 1 | TEAE Sepsis Grade 4 (600 mg BID, n=4): 1 | TEAE Sepsis Grade 5 (600 mg BID, n=4): 0 | TEAE Sinus tachycardia Grade 1 (600 mg BID, n=4): 0 | TEAE Thrombocytopenia Grade 4 (600 mg BID, n=4): 0 | TEAE Vomiting Grade 1 (600 mg BID, n=4): 1 | TEAE Weight decreased Grade 1 (600 mg BID, n=4): 0 | TEAE Weight decreased Grade 2 (600 mg BID, n=4): 1 | TEAE Weight decreased Grade 3 (600 mg BID, n=4): 0 | Related TEAE Decreased appetite Grade 1 (1200 mg BID, n=7): 0 | Related TEAE Decreased appetite Grade 2 (1200 mg BID, n=7): 0 | Related TEAE Diarrhea Grade 2 (1200 mg BID, n=7): 2 | Related TEAE Differentiation syndrome Grade 2 (1200 mg BID, n=7): 0 | Related TEAE Differentiation syndrome Grade 3 (1200 mg BID, n=7): 1 | Related TEAE Dyspnea Grade 1 (1200 mg BID, n=7): 1 | Related TEAE Dyspnea Grade 2 (1200 mg BID, n=7): 0 | Related TEAE Fatigue Grade 1 (1200 mg BID, n=7): 0 | Related TEAE Fatigue Grade 2 (1200 mg BID, n=7): 1 | Related TEAE Fatigue Grade 3 (1200 mg BID, n=7): 0 | Related TEAE Hypomagnesaemia Grade 1 (1200 mg BID, n=7): 0 | Related TEAE Nausea Grade 1 (1200 mg BID, n=7): 1 | Related TEAE Nausea Grade 2 (1200 mg BID, n=7): 0 | Related TEAE Sinus tachycardia Grade 1 (1200 mg BID, n=7): 0 | Related TEAE Vomiting Grade 1 (1200 mg BID, n=7): 0 | TEAE Abdominal pain upper Grade 1 (1200 mg BID, n=7): 0 | TEAE Abdominal pain upper Grade 2 (1200 mg BID, n=7): 0 | TEAE Acute kidney injury Grade 1 (1200 mg BID, n=7): 0 | TEAE Acute kidney injury Grade 2 (1200 mg BID, n=7): 0 | TEAE Acute kidney injury Grade 3 (1200 mg BID, n=7): 0 | TEAE Anaemia Grade 3 (1200 mg BID, n=7): 3 | TEAE Anaemia Grade 4 (1200 mg BID, n=7): 0 | TEAE Anxiety Grade 1 (1200 mg BID, n=7): 1 | TEAE Anxiety Grade 2 (1200 mg BID, n=7): 0 | TEAE Arthralgia Grade 1 (1200 mg BID, n=7): 0 | TEAE Arthralgia Grade 2 (1200 mg BID, n=7): 1 | TEAE Constipation Grade 1 (1200 mg BID, n=7): 1 | TEAE Constipation Grade 2 (1200 mg BID, n=7): 0 | TEAE Contusion Grade 1 (1200 mg BID, n=7): 1 | TEAE Contusion Grade 2 (1200 mg BID, n=7): 0 | TEAE Cough Grade 1 (1200 mg BID, n=7): 0 | TEAE Cough Grade 2 (1200 mg BID, n=7): 0 | TEAE Decreased appetite Grade 1 (1200 mg BID, n=7): 0 | TEAE Decreased appetite Grade 2 (1200 mg BID, n=7): 1 | TEAE Decreased appetite Grade 3 (1200 mg BID, n=7): 0 | TEAE Diarrhea Grade 1 (1200 mg BID, n=7): 1 | TEAE Diarrhea Grade 2 (1200 mg BID, n=7): 2 | TEAE Dry skin Grade 1 (1200 mg BID, n=7): 1 | TEAE Dyspnoea Grade 1 (1200 mg BID, n=7): 1 | TEAE Dyspnoea Grade 2 (1200 mg BID, n=7): 1 | TEAE Dyspnoea Grade 3 (1200 mg BID, n=7): 0 | TEAE Epistaxis Grade 1 (1200 mg BID, n=7): 0 | TEAE Epistaxis Grade 2 (1200 mg BID, n=7): 2 | TEAE Epistaxis Grade 3 (1200 mg BID, n=7): 0 | TEAE Fall Grade 1 (1200 mg BID, n=7): 1 | TEAE Fatigue Grade 1 (1200 mg BID, n=7): 0 | TEAE Fatigue Grade 2 (1200 mg BID, n=7): 2 | TEAE Fatigue Grade 3 (1200 mg BID, n=7): 0 | TEAE Febrile neutropenia Grade 3 (1200 mg BID, n=7): 2 | TEAE General physical health deterioration Grade 3 (1200 mg BID, n=7): 0 | TEAE General physical health deterioration Grade 5 (1200 mg BID, n=7): 0 | TEAE Gingivitis Grade 1 (1200 mg BID, n=7): 0 | TEAE Haematuria Grade 1 (1200 mg BID, n=7): 1 | TEAE Haematuria Grade 2 (1200 mg BID, n=7): 0 | TEAE Haematuria Grade 3 (1200 mg BID, n=7): 0 | TEAE Headache Grade 1 (1200 mg BID, n=7): 0 | TEAE Headache Grade 2 (1200 mg BID, n=7): 0 | TEAE Headache Grade 3 (1200 mg BID, n=7): 0 | TEAE Hyperkalaemia Grade 1 (1200 mg BID, n=7): 0 | TEAE Hyperkalaemia Grade 4 (1200 mg BID, n=7): 0 | TEAE Hypertension Grade 2 (1200 mg BID, n=7): 0 | TEAE Hypertension Grade 3 (1200 mg BID, n=7): 1 | TEAE Hyperuricaemia Grade 1 (1200 mg BID, n=7): 2 | TEAE Hyperuricaemia Grade 3 (1200 mg BID, n=7): 0
